{"source": "patent US20240261272A1", "about": "“LPA1 ANTAGONISTS FOR TREATING INTERSTITIAL LUNG DISEASE” (Bristol-Myers Squibb Company, priority 2022, published 2024)", "key": {"[1]": {"test": "Phase 1 Part C MAD study in healthy Japanese participants: blood pressure", "format": "in vivo, human", "conditions": "for Maximum of Mean (±SD) Reduction in DBP from Baseline (Baseline): MAD Japanese Part C", "protocol": "The study was performed in 3 parts in 112 healthy male and female participants, including 24 Japanese participants. Female participants were to be not of childbearing potential. The present study was designed to evaluate the safety and tolerability, PK, and exploratory PD of an oral suspension of Compound A. Parts A and B (Cohort B1 only) enrolled healthy participants and was conducted at a site in The Netherlands and Part B (Cohort B2 to B5) enrolled healthy non-Japanese participants and was conducted at a site in the United Kingdom (UK). Part C enrolled healthy Japanese participants and was conducted at the same site in the UK.\nPart C was a MAD study in 3 sequential dose escalation cohorts (30 mg BID, 60 mg BID, and 90 mg BID) of 8 healthy Japanese participants (6 active+2 placebo) each. Eligible participants in Cohorts C1 to C3 received study drug (Compound A or placebo) administered orally for 14 days.\nPhysical examinations, vital sign measurements (including orthostasis testing in Cohort A6, Cohort B3 to B5, and C1 to C3 at selected time points), 12-lead electrocardiogram (ECG), and clinical laboratory evaluations were performed at selected times throughout the study. In addition, Holter monitoring was performed for the first 24 hours post dose on Day 1 in Part A (not in FE/pH cohort), and also for the first 24 hours post dose on Day 1 and Day 14 in Parts B and C. Participants were closely monitored for adverse events (AEs). Blood samples were collected for up to 14 days (follow-up visit) after (last) study drug administration for PK analysis. In addition, blood and urine were collected for exploratory biomarker assessments and for biobanking of samples for potential analyses. Urine was collected for potential PK analysis for up to 96 hours after a single dose of Compound A or placebo was administered in the SAD part, and for up to 24 hours after the first (morning) dose of study drug on Day 1 and for up to 24 hours after the last (morning) dose of study drug on Day 14 in the MAD parts."}, "[2]": {"test_system": "participants with PPF", "test": "Phase 2 study, PPF cohort: efficacy (rate of FVC decline in % of predicted, FVC)", "format": "in vivo, human", "conditions": "for Relative Reduction: table title, dose not given", "protocol": "A total of 123 participants with PPF were randomized. Participants (age ≥21 years) were randomized (1:1:1) to receive 30 mg or 60 mg Compound A or PBO twice daily for 26 weeks. […] Immunosuppressive medications (mycophenolate mofetil, mycophenolic acid, azathioprine and/or tacrolimus) were permitted only if dosing is stable for ≥6 months prior to screening. If receiving antifibrotic agents pirfenidone or nintedanib, patients had to receive a stable dosage for ≥3 months prior to screening and during the screening period; if not receiving pirfenidone or nintedanib, patients had to be naive to both drugs or not have received either 4 weeks prior to Day 1. A total of 47 (38.2%) subjects were receiving antifibrotic treatment (with or without immunosuppression therapy). Of those subjects, 34 were being treated with nintedanib and 13 with pirfenidone. Participants were stratified by usual interstitial pneumonia (UIP) pattern (presence versus absence) and background therapy (antifibrotics +/−ILD-targeted immunosuppression versus ILD-targeted immunosuppression alone versus none).UIP pattern was present in 52% of subjects and unclassifiable ILD was he most common disease categorization.\nThe study was not powered to detect statistical significance (no formal testing). No target effect size was defined in the study design. There were two estimand approaches for analysis: Treatment Policy: Effect of treatment with dose reduction as part of treatment regimen.\nWhile-On Treatment: Effect of treatment without dose reduction.\nThe main efficacy endpoint, rate of FVC decline (in % of predicted) from baseline to wk-26 in the PPF cohort, was estimated using a linear mixed-effects model utilizing all FVC timepoints. It was analyzed under a primary estimand (utilizing all data, treatment policy strategy), and under supplementary estimand (utilizing all data up to the point of dose reduction, while-on-treatment strategy). Analysis was performed in the overall population as well as in sub-groups by 1) background anti-fibrotic treatment or not 2) UIP radiographic pattern (presence or not). The mean baseline ppFVC was 66.700 for the PPF cohort."}}}
{"compound": "CCCN(C)C(=O)OCc1c(-c2ccc(O[C@H]3CCC[C@H](C(=O)O)C3)c(C)n2)nnn1C", "note": "[Compound A, (1S,3S)-3-((2-methyl-6-(1-methyl-5-(((methyl(propyl)carbamoyl)-oxy)methyl)-1H-1,2,3-triazol-4-yl)pyridin-3-yl)oxy)cyclohexane-1-carboxylic acid]", "values": [{"measurement": "BP reduction dose dependence (in words)", "setting": "[1]; Japanese MAD cohorts", "value": "no clear Compound A dose-dependent BP reduction trend"}, {"measurement": "Maximum of Mean (±SD) Reduction in DBP from Baseline (Baseline)", "setting": "[1]; 30 mg BID (C1)", "value": "8.8 ± 5.12", "unit": "mmHg"}, {"measurement": "Maximum of Mean (±SD) Reduction in DBP from Baseline (Baseline)", "setting": "[1]; 60 mg BID (C2)", "value": "8.2 ± 10.40", "unit": "mmHg"}, {"measurement": "Maximum of Mean (±SD) Reduction in DBP from Baseline (Baseline)", "setting": "[1]; 90 mg BID (C2)", "value": "8.0 ± 8.22", "unit": "mmHg"}, {"measurement": "dose response (in words)", "setting": "[2]; PPF cohort, 30 mg and 60 mg", "value": "Clear dose response"}, {"measurement": "mean observed change from baseline in ppFVC percentage and FVC versus placebo (in words)", "setting": "[2]; PPF cohort, 30 mg and 60 mg, FIGS. 10 and 11", "value": "show improvement over placebo at week 8"}, {"measurement": "consistency of efficacy across sub-groups (in words)", "setting": "[2]; PPF cohort, irrespective of background antifibrotics or of UIP pattern", "value": "Efficacy consistent in all sub-groups"}, {"measurement": "FVC (% Predicted) Rate of Decline, Difference", "setting": "[2]; PPF, 30 mg - placebo, UIP Present, Primary Estimand", "value": 0.88, "unit": "% Predicted"}, {"measurement": "FVC (% Predicted) Rate of Decline, Slope", "setting": "[2]; PPF, 30 mg, Not Receiving Antifibrotic Treatment, Supplementary Estimand", "value": "−2.83", "unit": "% Predicted"}, {"measurement": "FVC (% Predicted) Rate of Decline, Slope", "setting": "[2]; PPF, 30 mg, Overall Population, Primary Estimand - Treatment Policy", "value": "−2.7", "unit": "% Predicted"}, {"measurement": "FVC (% Predicted) Rate of Decline, Slope", "setting": "[2]; PPF, 30 mg, Receiving Antifibrotic Treatment, Supplementary Estimand", "value": "−1.8", "unit": "% Predicted"}, {"measurement": "FVC (% Predicted) Rate of Decline, Slope", "setting": "[2]; PPF, 30 mg, UIP Absent, Supplementary Estimand", "value": "−2.24", "unit": "% Predicted"}, {"measurement": "FVC (% Predicted) Rate of Decline, Slope", "setting": "[2]; PPF, 30 mg, UIP Present, Primary Estimand", "value": "−3.07", "unit": "% Predicted"}, {"measurement": "FVC (% Predicted) Rate of Decline, Difference", "setting": "[2]; PPF, 60 mg - placebo, UIP Absent, Supplementary Estimand", "value": 3.8, "unit": "% Predicted"}, {"measurement": "FVC (% Predicted) Rate of Decline, Slope", "setting": "[2]; PPF, 60 mg, Not Receiving Antifibrotic Treatment, Supplementary Estimand", "value": "−1.56", "unit": "% Predicted"}, {"measurement": "FVC (% Predicted) Rate of Decline, Slope", "setting": "[2]; PPF, 60 mg, Overall Population, Supplementary Estimand - While On Treatment", "value": "−1.3", "unit": "% Predicted"}, {"measurement": "FVC (% Predicted) Rate of Decline, Slope", "setting": "[2]; PPF, 60 mg, Receiving Antifibrotic Treatment, Supplementary Estimand", "value": "−1.1", "unit": "% Predicted"}, {"measurement": "FVC (% Predicted) Rate of Decline, Slope", "setting": "[2]; PPF, 60 mg, UIP Absent, Supplementary Estimand", "value": "−0.7", "unit": "% Predicted"}, {"measurement": "FVC (% Predicted) Rate of Decline, Slope", "setting": "[2]; PPF, 60 mg, UIP Present, Primary Estimand", "value": "−1.46", "unit": "% Predicted"}, {"measurement": "Treatment difference 60 mg v placebo, rate of decline in ppFVC baseline to Week 26", "setting": "[2]; PPF, Non UIP subgroup", "value": 3.80}, {"measurement": "Relative Reduction", "setting": "[2]; PPF, Not Receiving Antifibrotic Treatment, Primary Estimand", "value": "Estimand - Treatment Policy (Relative Reduction = 68.5%)"}, {"measurement": "Relative Reduction", "setting": "[2]; PPF, Not Receiving Antifibrotic Treatment, Supplementary Estimand", "value": "Estimand - While on Treatment (Relative Reduction = 62.6%)"}, {"measurement": "Relative Reduction", "setting": "[2]; PPF, Receiving Antifibrotic Treatment, Primary Estimand", "value": "Estimand - Treatment Policy (Relative Reduction = 85%)"}, {"measurement": "Relative Reduction", "setting": "[2]; PPF, Receiving Antifibrotic Treatment, Supplementary Estimand", "value": "Estimand - While on Treatment (Relative Reduction = 74.9%)"}, {"measurement": "Relative Reduction", "setting": "[2]; PPF, UIP Absent, Primary Estimand", "value": "Policy Strategy (Relative Reduction = 83.6%)"}, {"measurement": "Relative Reduction", "setting": "[2]; PPF, UIP Absent, Supplementary Estimand", "value": "While on Treatment (Relative Reduction = 84.4%)"}, {"measurement": "Relative Reduction", "setting": "[2]; PPF, UIP Present, Primary Estimand", "value": "Policy Strategy (Relative Reduction = 63%)"}, {"measurement": "Relative Reduction", "setting": "[2]; PPF, UIP Present, Supplementary Estimand", "value": "While on Treatment (Relative Reduction = 54%)"}]}
